For assay [1], the target named is T1, Nitric oxide synthase, inducible (Mus musculus, UniProt P29477).
T1 sequence (P29477 whole entry): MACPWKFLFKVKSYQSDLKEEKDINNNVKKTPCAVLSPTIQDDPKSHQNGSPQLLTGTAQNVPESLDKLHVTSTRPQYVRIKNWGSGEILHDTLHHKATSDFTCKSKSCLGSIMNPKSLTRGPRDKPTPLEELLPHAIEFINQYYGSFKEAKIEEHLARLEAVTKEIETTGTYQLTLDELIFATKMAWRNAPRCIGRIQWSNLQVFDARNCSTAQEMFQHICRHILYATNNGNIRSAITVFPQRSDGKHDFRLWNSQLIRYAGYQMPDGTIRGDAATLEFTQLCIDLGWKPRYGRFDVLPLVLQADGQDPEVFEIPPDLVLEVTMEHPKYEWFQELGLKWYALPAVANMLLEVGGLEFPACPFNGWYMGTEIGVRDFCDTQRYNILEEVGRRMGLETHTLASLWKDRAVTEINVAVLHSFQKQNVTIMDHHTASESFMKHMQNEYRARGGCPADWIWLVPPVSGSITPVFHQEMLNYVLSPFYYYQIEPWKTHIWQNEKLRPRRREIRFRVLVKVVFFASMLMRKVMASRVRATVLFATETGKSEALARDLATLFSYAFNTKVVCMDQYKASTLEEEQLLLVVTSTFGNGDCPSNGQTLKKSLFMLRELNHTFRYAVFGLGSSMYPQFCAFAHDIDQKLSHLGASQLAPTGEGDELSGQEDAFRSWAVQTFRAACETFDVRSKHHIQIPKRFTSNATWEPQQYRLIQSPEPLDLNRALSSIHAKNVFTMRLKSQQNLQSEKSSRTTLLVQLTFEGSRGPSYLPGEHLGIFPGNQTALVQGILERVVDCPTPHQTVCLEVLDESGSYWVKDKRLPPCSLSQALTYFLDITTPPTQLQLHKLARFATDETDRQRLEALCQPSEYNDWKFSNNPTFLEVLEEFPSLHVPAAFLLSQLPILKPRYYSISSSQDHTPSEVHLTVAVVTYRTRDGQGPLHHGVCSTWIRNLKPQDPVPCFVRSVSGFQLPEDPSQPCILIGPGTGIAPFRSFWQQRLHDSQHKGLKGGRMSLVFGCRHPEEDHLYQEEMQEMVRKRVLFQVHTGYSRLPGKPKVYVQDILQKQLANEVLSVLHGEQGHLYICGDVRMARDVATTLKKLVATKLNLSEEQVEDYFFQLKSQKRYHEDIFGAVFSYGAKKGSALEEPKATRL
The assay is described as follows: Inhibition of murine macrophage iNOS.

Assay [2] can be described thus: Selectivity for rat nNOS over bovine eNOS.
Another assay concerns the target T2, Nitric oxide synthase 3 (Bos taurus, UniProt P29473).
T2 sequence (P29473 whole entry): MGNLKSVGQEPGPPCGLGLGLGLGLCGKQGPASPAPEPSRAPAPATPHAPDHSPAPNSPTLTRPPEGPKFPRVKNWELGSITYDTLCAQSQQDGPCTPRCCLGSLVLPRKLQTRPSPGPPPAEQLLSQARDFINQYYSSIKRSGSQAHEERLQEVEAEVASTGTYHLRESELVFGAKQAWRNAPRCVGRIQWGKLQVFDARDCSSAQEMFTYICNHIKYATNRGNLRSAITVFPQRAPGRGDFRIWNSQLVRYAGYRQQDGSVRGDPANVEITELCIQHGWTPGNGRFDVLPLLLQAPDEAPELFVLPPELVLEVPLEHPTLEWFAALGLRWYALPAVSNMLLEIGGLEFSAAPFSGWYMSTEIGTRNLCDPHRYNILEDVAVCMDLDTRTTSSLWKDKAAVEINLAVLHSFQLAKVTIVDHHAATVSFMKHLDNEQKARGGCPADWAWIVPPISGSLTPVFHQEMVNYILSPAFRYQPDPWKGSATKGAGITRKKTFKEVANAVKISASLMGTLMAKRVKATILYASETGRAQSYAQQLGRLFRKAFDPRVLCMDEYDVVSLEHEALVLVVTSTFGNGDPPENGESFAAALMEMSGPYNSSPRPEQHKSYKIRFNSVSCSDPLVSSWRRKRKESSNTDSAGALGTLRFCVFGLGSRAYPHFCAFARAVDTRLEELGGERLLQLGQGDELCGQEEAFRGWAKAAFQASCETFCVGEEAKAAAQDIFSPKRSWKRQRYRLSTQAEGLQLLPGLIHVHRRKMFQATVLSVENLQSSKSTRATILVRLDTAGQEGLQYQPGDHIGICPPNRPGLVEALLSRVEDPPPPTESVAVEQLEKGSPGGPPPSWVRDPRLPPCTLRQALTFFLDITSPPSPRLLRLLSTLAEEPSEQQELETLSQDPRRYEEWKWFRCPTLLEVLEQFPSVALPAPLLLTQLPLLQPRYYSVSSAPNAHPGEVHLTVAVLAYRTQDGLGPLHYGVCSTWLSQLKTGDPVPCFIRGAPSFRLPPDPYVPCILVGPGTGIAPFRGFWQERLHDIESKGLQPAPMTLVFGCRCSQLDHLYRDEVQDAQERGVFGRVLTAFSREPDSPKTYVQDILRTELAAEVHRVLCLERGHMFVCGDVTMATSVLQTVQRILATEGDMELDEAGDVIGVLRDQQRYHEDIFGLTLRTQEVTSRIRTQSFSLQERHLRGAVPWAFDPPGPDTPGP
The assay is described as follows: Inhibition of bovine eNOS.

The nature of assay [3]: Selectivity for rat nNOS over murine iNOS.
A further assay addresses Nitric oxide synthase 1 (Rattus norvegicus, UniProt P29476). In words: Inhibition of rat nNOS.

Chain of Nitric oxide synthase 1 (P29476 whole entry): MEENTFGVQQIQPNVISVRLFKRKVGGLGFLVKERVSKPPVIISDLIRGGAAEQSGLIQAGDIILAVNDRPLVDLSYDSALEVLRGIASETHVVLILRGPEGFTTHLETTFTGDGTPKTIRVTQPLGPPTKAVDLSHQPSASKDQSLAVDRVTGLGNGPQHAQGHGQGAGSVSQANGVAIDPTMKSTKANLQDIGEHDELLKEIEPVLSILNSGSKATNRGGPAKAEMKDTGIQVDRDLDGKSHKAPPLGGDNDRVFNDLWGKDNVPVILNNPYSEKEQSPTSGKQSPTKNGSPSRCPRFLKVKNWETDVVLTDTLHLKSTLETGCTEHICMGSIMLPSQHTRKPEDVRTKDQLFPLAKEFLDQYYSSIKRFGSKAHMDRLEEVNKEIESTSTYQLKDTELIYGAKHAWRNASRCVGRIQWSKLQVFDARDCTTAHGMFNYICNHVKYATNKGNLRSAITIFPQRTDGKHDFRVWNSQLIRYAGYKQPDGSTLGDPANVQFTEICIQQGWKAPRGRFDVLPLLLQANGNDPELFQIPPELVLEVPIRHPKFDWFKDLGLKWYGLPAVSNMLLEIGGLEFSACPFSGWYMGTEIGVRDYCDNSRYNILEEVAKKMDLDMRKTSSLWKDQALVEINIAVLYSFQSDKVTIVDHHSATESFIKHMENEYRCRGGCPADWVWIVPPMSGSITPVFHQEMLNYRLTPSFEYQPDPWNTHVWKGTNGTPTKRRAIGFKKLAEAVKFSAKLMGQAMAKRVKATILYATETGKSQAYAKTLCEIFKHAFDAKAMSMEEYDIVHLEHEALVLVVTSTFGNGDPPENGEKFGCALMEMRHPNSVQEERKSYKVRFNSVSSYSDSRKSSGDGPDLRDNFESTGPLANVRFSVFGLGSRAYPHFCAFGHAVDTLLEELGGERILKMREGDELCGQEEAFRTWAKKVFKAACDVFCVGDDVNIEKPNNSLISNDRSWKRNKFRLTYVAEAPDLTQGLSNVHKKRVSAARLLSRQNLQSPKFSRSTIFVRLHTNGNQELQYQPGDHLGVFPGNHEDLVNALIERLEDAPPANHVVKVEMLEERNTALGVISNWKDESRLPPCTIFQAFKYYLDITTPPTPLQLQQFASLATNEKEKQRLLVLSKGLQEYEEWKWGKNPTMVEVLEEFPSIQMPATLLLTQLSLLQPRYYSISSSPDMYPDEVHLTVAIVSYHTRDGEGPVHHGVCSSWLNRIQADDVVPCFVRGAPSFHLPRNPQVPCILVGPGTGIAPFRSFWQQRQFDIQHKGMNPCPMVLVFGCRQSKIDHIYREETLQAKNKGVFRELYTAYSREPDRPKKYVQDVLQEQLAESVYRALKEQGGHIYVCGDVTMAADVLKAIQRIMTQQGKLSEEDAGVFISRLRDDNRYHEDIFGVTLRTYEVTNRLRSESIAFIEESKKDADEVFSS

Turning to `CN1C[C@H](NC(=O)[C@@H](N)CCC/N=C(\N)N[N+](=O)[O-])C[C@H]1C(N)=O`, the figures for the IC50 (in assay [1]; at Nitric oxide synthase 3; against Nitric oxide synthase 1) were 83.5 µM, 1690 µM and 73.5 µM, respectively. Further, the figures for the Ki (in assay [1]; on Nitric oxide synthase 3; on Nitric oxide synthase 1) were 37.9 µM, 246 µM and 8.46 µM, respectively. Also, the Ratio Ki in assay [2] was determined as 29; in assay [3] it was 4.5.
Take `NC(=O)[C@H]1NCC[C@@H]1NC(=O)[C@@H](N)CCC/N=C(\N)N[N+](=O)[O-]`: in assay [1], the IC50 (as a rule, the point on the concentration scale where inhibition reaches its midpoint) is 12.7 µM and the Ki (commonly the equilibrium dissociation constant of an inhibitor or competing ligand from its target) is 5.76 µM. At Nitric oxide synthase 3, this molecule showed an IC50 of 1380 µM and an inhibitory constant (Ki) of 200 µM.
Turning to `NC(=O)[C@@H]1C[C@@H](NC(=O)[C@@H](N)CCC/N=C(\N)N[N+](=O)[O-])CN1Cc1ccccc1`, the IC50 in assay [1] amounted to 87.5 µM; at Nitric oxide synthase 3 it was 1100 µM; on Nitric oxide synthase 1, 2.85 µM. Also, the Ki came to 39.7 µM in assay [1], 159 µM at Nitric oxide synthase 3 and 0.328 µM at Nitric oxide synthase 1. Besides, the Ratio Ki was 485 in assay [2] and 121 in assay [3].
